Data as given in US20250134860A1, “NOVEL COMPOUND, AND COMPOSITION FOR PREVENTING, ALLEVIATING OR TREATING BACTERIAL INFLAMMATION AND INFLAMMASOME-MEDIATED DISEASES, COMPRISING SAME AS ACTIVE INGREDIENT” (Quorum Bio Co., Ltd., priority 2022, published 2025).

Legend:
[1] = Plasma stability in rat plasma (LC-MS/MS); format: in vitro ADME; conditions: 37° C., 0, 30, 60, 120, 240 minutes
Protocol: The compounds of Examples 1-2 and Comparative Example, and the substance used as the positive control (Eucatropine, Loterpresnol) were dissolved in DMSO to prepare a stock solution having a concentration of 10 mM. The stock solution of each test substance was then diluted to prepare 0.2 mM and 1 mM working solutions and used for the test (For the comparative example compound, 70% acetonitrile was used as a solvent, and for the compound of Example 1-2, 50% acetonitrile was used as a solvent).
The positive control and the standard solution of the test substance were placed in tubes containing two types of plasma (human and rat) at concentrations of 1 μM and 5 μM, respectively, and then incubated at 37° C. for a prescribed time (0, 30, 60, 120, 240 minutes) while shaking and mixing. At each time point, the mixture sample was dispensed in 100 μl increments into a cell culture plate (96-well plate) containing 400 μl of quench reagent to terminate the test, After centrifugation (5000×g, 10 min), 100 μl of the supernatant was taken out, mixed with 200 μl of ultrapure water, and the solution was then injected into a LC-MS/MS system to analyze the drug in each time zone. Thereby, the plasma stability of the compounds of Comparative Example and Example 1-2 was evaluated.

[2] = tested on: Sprague-Dawley rat bone marrow cells; assay: Rat micronucleus test; conditions: rat, in vivo
Protocol: Hair was removed from the administration site (subcutaneous) of the SD rats, the administration concentration of the example compounds were set to a low dose (500 mg/kg/day), a medium dose (1000 mg/kg/day), and a high dose (2000 mg/kg/day), and administered subcutaneously to the left and right […] of the test system (10 ml/kg/day each), and the compound was administered subcutaneously in divided doses to the left and right […] of the test system (10 ml/kg/day each).
24 hours after the second administration of the test substance, the femur was removed from each group to collect bone marrow cells. 0.5 mL of 10% neutral formalin was added to the bone marrow cell suspension, fixed for 5 minutes, centrifuged for 5 minutes (4° C., 1,000 rpm, Micro17TR, Hanil Science Industrial, Republic of Korea) to remove the supernatant. Then, 0.3 mL of 10% neutral formalin was added to the precipitated bone marrow cells, suspended, filtered through a cell strain, and transferred to a storage tube. The fixed bone marrow cell suspension was dropped onto a cover glass, and then covered with a slide glass coated with 20 μL of 0.05% acridine orange to prepare an observation slide. The observation slide was observed under a microscope (600× magnification, BX51, Olympus, Japan).
As an indicator of bone marrow cell proliferation inhibition, 500 total red blood cells per individual were observed, and the ratio of polychromatic red blood cells to total red blood cells (PCE/(PCE+NCE)) was calculated. As a positive control, cyclophosphamide (Cas No: 50-18-0) was administered at a dose of 20 mg/kg/day.

[3] = tested on: human monocyte cell line (THP-1); assay: Cytotoxicity in human monocyte cell line (CCK-8); format: cell-based; conditions: 0.002, 0.02, 0.2, 2 μM, 24 hours, at any concentration
Protocol: The human monocyte cell line (THP-1) was cultured in a 10% fetal bovine serum (Hyclone, Waltham, MA, USA), and a RPMI 1640 medium supplemented with 2.05 mM L-glutamate and antibiotics (100 units/ml penicillin, 100 μg/ml streptomycin), and then seeded in a 96 well microtiter plate at a concentration of 1×10^5 cells/well. The compound of Example 1-2 was diluted to a final concentration of 0.002 μM, 0.02 μM, 0.2 μM, and 2 μM, cells in each well were treated and cultured for 24 hours. Then, the cultured cells were treated with 10 μl of Cell Counting Kit-8 (CCK-8, DOJINDO, Kumamoto, Japan) solution in each well, and then the absorbance was measured at 450 nm for each time zone (1 h, 2 h, 3 h), and the results were derived based on the absorbance data from the last time zone, 3 h. At this time, the cell viability of untreated cells was set as 100% as the reference, and the cell viability of the cells treated with the sample was calculated and shown in FIG. 19.

[4] = tested on: P. aeruginosa; assay: Inhibitory effect on biofilm formation in P. aeruginosa; format: cell-based, Pseudomonas aeruginosa; conditions: 0.006, 0.06, 0.6 μg/ml; 48 hours; compared with control (CT)
Protocol: The inhibitory effect of the compound of Example 1-2 on biofilm formation in P. aeruginosa (available from the Korean Collection for Oral Microbiology (KCOM)) and A. baumannii (available from the Korea Culture Center of Microorganisms (KCCM)) was confirmed.
Sterilized cover glass slips (round, 12 mm radius) were placed individually at a bottom of each well of a cell culture plate (24-well plate) using forceps, and the compound of Example 1-2 was diluted in the medium (P. aeruginosa: LB medium, A. baumannii: NB medium) cultured with bacteria so that the final concentrations were 0.006 μg/ml, 0.06 μg/ml, and 0.6 μg/ml.
The prepared culture medium was dispensed into a cell culture plate in which glass slips were placed, and the respective bacteria were inoculated to a concentration of 2×10^7 cells/ml. […]
The biofilm in which bacteria cultured for each group were formed on glass slips was stained with 1% crystal violet solution for 15 minutes, and then washed three times with PBS (phosphate buffered saline) solution, and decolorized with acetone-alcohol (20:80, vol/vol). After the decolorizing solution containing crystal violet was put in 200 μl increments in a 96-well microplate for each group, the absorbance (OD590nm) was measured using an absorbance microplate reader (Epoch2, Bio-Tek, USA), and the biofilm formation level was compared.

[5] = tested on: P. gingivalis; assay: Inhibitory effect on P. gingivalis biofilm formation (crystal violet, OD590nm); format: cell-based, Porphyromonas gingivalis

In the case of `Cc1ccc(C(=C2c3ccccc3C(=O)N2C)c2ccc(C)cc2)cc1` [Example 1-2, 3-(di-p-tolylmethylene)-2-methylisoindolin-1-one], the “amount of the compound remaining in the plasma” value [1] is reported as “remained stable”, the “ratio of polychromatic red blood cells to the total number of red blood cells, relative to negative control” value ([2]; Sprague-Dawley, 24 h) is reported as ≥ 20 % of the negative control and the “appearance frequency of micronucleated polychromatic erythrocytes (MNPCE/PCE) compared to the negative control” value [2] is reported as “did not show a statistically significant difference”. The “cytotoxicity (cell viability, CCK-8)” value [3] was “did not exhibit cytotoxicity”, the “biofilm formation of P. aeruginosa” value [4] was “significantly suppressed in a concentration-dependent manner” and the “biofilm formation of P. gingivalis increased by DPD” value ([5]; DPD 10 μM + compound 0.002, 0.02, 0.2, 2 μM, 48 hours, anaerobic, OD590nm) was “inhibited in a concentration-dependent manner”. The “ability to inhibit biofilm formation of P. gingivalis at the same concentration” value ([5]; Example 1-2 against comparative example compound, 0.002-2 μM with DPD) was “better ability to inhibit biofilm formation than the comparative example compound”.
